How the values were obtained:
human Kv1.3 = molecular target: T1, human Kv1.3 (Homo sapiens, UniProt P22001); experiment: Kv1.3 Autopatch Electrophysiology (whole cell patch-clamp, stably transfected CHO cells); assay type: cell-based; conditions: compound 1 μM, step to +30 mV for 500 ms, inhibition of total charge relative to control, room temperature
T1 construct: expressed in transfected cells; host or cells: stably transfected cells grown in medium for CHO cells
Method: Cells stably transfected with cDNA for human Kv1.3 (in pcDNA3.1) were grown in Ex-cell 302 serum-free medium for CHO cells, supplemented with 10 μl/ml [100×] glutamine, 500 μg/ml G418 ([…]), and 1% HT supplement (50×, hypoxanthine and thymidine). Compounds were tested on these cells using the AutoPatch technology in whole cell mode.
The external bathing solution contained (in mM): 150 NaCl, 10 KCl, 1 MgCl2, 3 CaCl2, 10 HEPES, pH 7.4 with NaOH. Patch pipettes were filled with an electrode solution of composition (in mM): 100 K-Gluconate, 20 KCl, 1 MgCl2, 1 CaCl2, 10 HEPES, 11 EGTA, 5 ATP-Na2, 2 Glutathione pH 7.2 with KOH.
Compounds were dissolved in DMSO (100%) and made up in the external bather at a concentration of 1 μM immediately prior to use. All experiments were conducted at room temperature.
A cell suspension (10 ml), with a density of 6×10^6 cells, was aliquoted into a 15 ml centrifuge tube and stored at 4° C. before use. Prior to use a tube was taken and centrifuged at 1000 rpm for 4 mins at room temperature. The supernatant was then discarded, leaving a cell pellet at the bottom of the tube. The pellet was then resuspended using 1 ml of cold (4° C.), filtered (0.22 μm), 0.05% BSA/bather solution (0.05 g BSA/100 ml bather). The bottom of the tube was manually agitated followed by gentle tituration. The cell suspension was then placed in the AutoPatch™ temperature controlled cell-hotel at 14° C. and regularly titurated.
A length of Teflon capillary tubing was dipped into the cell suspension solution, and a column of fluid was taken up by negative pressure. The column of fluid was in electrically connectivity with a Ag/AgCl reference electrode. Borosilicate glass patch pipettes (from 1.5 mm OD, thin-walled filamented, GC150-TF capillary glass, Harvard) were pulled using a DMZ pipette puller (Zeitz Instruments), and were back-filled using the internal pipette solution, being careful that no bubbles remained at the tip or in the body of the pipette. Patch pipettes typically had resistances of 2.5-3.5 MΩ. Once filled, the pipette tip and a proportion of the shaft (˜15 mm) were dipped into Sigmacote (Sigma). The recording pipettes were placed in a multiwell array and mounted on the AutoPatch™ machine. Automated patch-clamping and drug-application was initiated by the operator, but thereafter AutoPatch.exe continued the experiment providing that pre-set conditions and criteria were satisfied.
Whole cell patch-clamp recordings were made using the AutoPatch™ rig, which incorporated an EPC9 or EPC10 amplifier (HEKA, Germany) under control of Pulse software (v8.54 or v8.76, HEKA, Germany), a cell applicator, automated drug application system (DAS), valve controller (VF1) and a suction device all at room temperature. This equipment was completely under the control of AutoPatch.exe and operator intervention was only made when there was a requirement to refill the bather reservoirs or to prevent the loss of a cell due to a technical error.
Qualification stages prior to perfusion and drug application ensured that the observed current met the criteria for the experiment. Cells were continuously perfused with external solution at a flow rate of ˜2 ml/minute.
Electrophysiology voltage-step protocols and analysis of data was performed as follows. Data were sampled at 5 kHz, and filtered with a −3 dB bandwidth of 2.5 kHz. Cells were held at a voltage of −80 mV. Currents were evoked by a voltage step to +30 mV for 500 ms in duration applied every 15 s. Online analysis of the hKv1.3 current during the application of compounds was performed by the Pulse (v8.54 or v8.76, HEKA, Germany), Excel (Microsoft, USA) and AutoPatch™ software, with the total charge measured during the whole of voltage step Inhibition of charge movement in the presence of drug was calculated relative to control.

hKv1.5 = hKv1.5 (Homo sapiens, UniProt P22460); experiment: Kv1.5 Autopatch Electrophysiology (whole cell patch-clamp); assay type: cell-based; conditions: compound 1 μM, step to 0 mV for 1000 ms, total charge, room temperature (22-24° C.); for inhibition at 1 µM: read-out: hKv1.5 % inh.
Sequence of hKv1.5 (P22460 whole entry): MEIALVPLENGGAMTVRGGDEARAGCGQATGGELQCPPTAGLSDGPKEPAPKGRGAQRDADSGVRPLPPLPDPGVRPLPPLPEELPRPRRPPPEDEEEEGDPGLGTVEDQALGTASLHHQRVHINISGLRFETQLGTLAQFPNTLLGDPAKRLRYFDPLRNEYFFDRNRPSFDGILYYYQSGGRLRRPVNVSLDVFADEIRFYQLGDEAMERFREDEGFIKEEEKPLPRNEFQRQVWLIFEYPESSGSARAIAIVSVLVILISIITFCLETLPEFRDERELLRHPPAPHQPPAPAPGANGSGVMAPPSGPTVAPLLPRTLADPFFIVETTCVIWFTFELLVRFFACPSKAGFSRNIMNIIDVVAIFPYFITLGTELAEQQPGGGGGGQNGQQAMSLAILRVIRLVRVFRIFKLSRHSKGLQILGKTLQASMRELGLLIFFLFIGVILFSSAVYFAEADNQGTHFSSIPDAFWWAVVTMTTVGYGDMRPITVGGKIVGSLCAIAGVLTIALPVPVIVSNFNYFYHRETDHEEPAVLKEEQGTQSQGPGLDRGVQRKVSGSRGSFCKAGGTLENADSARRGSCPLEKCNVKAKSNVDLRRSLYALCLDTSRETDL
Method: The external bathing solution contained (in mM): 150 NaCl, 10 KCl, […], 3 MgCl2, 1 CaCl2, 10 HEPES, pH 7.4. Patch pipettes were filled with an electrode solution of composition (in mM): 160 KCl, 0.5 MgCl2, 10 HEPES, 1 EGTA, pH 7.4 with KOH.
Compounds were dissolved in DMSO (100%) and made up in the external bather at a concentration of 1 μM. All experiments were conducted at room temperature (22-24° C.).
A cell suspension (10 ml), with a density of 100,000 cells/ml, was aliquoted into a 15 ml centrifuge tube and transferred to an incubator (37° C., 5% CO2) for approximately one hour before use. Following 60 min incubation, a tube was taken and centrifuged at 1000 rpm for 4 mins at room temperature. 9.5 ml supernatant was thence discarded, leaving a cell pellet at the bottom of the tube. The pellet was then resuspended using 100 μl of cold (4° C.), filtered (0.22 μm), 0.2% BSA/bather solution (0.02 g BSA/10 ml bather). The bottom of the tube was manually agitated gently until the solution became cloudy with cells. The 100 μl cell resuspension solution was then stored on the bench at 4° C. (using a Peltier-based temperature control device) until used.
A length of capillary glass (1B150E-4, WPI) was dipped into the cell suspension solution, such that ˜3 cm column of fluid was taken up by capillary action. A Ag/AgCl wire was dropped into the non-dipped end of the capillary also. The outside of the solution-filled end of the capillary was then dried and the capillary was loaded into the AutoPatch™
Borosilicate glass patch pipettes (from 1.5 mm OD, thin-walled filamented, GC150-TF capillary glass, Harvard) were pulled using a DMZ pipette puller (Zeitz Instruments), and were back-filled using the internal pipette solution, being careful that no bubbles remain at the tip or in the body of the pipette. Patch pipettes typically had resistances of 2.3-3.5 MΩ. Once filled, the pipette tip and a proportion of the shaft (˜15 mm) were dipped into Sigmacote (Sigma). The recording pipette was then loaded into the AutoPatch™. Automated patch-clamping was initiated by the operator, but thereafter AutoPatch.exe continued the experiment providing that pre-set conditions and criteria were satisfied.
Whole cell patch-clamp recordings were made using the AutoPatch™ rig, which incorporated an EPC9 amplifier (HEKA, Germany) under control of Pulse software (v8.54, HEKA, Germany), a motion controller with 2 translators (Newport, UK), valve controller (VF1) and a c-level suction device all at room temperature (22-24° C.). This equipment was completely under the control of AutoPatch.exe and operator intervention was only made when there was a requirement to refill the drug reservoirs or to prevent the loss of a cell due to a technical error. Cells with an Rseries greater than 18 MΩ were discounted from the experiment.
Qualification stages prior to perfusion and drug application ensured that the observed current met the criteria for the experiment. Only those cells with an IK>500 pA were used for experiments. Cells were continuously perfused with external solution at a flow rate of 1.8-2 ml/minute. […] Online analysis of the hKv1.5 current during the application of compounds was performed by the AutoPatch™ software. Voltage-step protocols and analysis of data was performed as described for conventional electrophysiology.
Electrophysiology voltage-step protocols and analysis of data was performed as follows. Data was sampled at 5 kHz, and filtered with a −3 dB bandwidth of 2.5 kHz. Cells were held at a voltage of −80 mV. Currents were evoked to a voltage step for 1000 ms in duration at 0 mV every 5 s. Currents were analysed using Pulsefit software (v8.54, HEKA, Germany), with the total charge measured during the whole of the voltage step. All other plots were produced using Igor Pro (WaveMetrics).

T1 sequence (P22001 whole entry): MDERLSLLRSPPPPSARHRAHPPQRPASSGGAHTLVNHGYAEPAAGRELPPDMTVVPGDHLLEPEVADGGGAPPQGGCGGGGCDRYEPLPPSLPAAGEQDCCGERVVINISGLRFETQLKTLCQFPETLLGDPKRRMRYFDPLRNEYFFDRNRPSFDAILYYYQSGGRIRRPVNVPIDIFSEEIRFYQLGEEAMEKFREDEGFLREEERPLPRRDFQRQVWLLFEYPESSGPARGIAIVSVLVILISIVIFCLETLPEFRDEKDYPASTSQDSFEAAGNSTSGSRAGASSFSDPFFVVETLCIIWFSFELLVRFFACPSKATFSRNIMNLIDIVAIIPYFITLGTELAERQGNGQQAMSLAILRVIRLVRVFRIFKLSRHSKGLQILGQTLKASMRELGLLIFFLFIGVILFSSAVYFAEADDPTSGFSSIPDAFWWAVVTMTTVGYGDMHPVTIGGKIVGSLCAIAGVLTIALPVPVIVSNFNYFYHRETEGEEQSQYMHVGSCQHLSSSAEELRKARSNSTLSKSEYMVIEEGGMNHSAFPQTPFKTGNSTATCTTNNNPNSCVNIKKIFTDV

| inhibition at 1 µM (hKv1.5) [%] | Compound | hKv1.5 % inh. (hKv1.5) [%] | other results |
| --- | --- | --- | --- |
|  | 1-Methyl-1H-imidazole-4-sulfonic acid benzyl-[3-(4-phenyl-piperazin-1-yl)-phenyl]-amide [Example 13] |  | hKv1.3 % inh. (human Kv1.3): 41% |
|  | 1-Methyl-1H-pyrazole-3-sulfonic acid (4-chloro-benzyl)-[4-fluoro-3-(2-oxo-pyrrolidin-1-yl)-phenyl]-amide [Example 37] |  | hKv1.3 % inh. (human Kv1.3): 53% |
|  | 1-Methyl-1H-pyrazole-3-sulfonic acid benzyl-[3-(2-oxo-pyrrolidin-1-yl)-phenyl]-amide [Example 39] |  | hKv1.3 % inh. (human Kv1.3): 74% |
|  | 1-Methyl-1H-pyrazole-4-sulfonic acid benzyl-[3-(2-oxo-pyrrolidin-1-yl)-phenyl]-amide [Example 24] | 41 |  |
|  | 2-Methyl-2H-pyrazole-3-sulfonic acid (4-chloro-benzyl)-[3-(2-oxo-pyrrolidin-1-yl)-phenyl]-amide [Example 26] | 43 |  |
|  | 3-Oxo-3,4-dihydro-2H-benzo[1,4]oxazine-6-sulfonic acid (4-chloro-benzyl)-[3-(2-oxo-pyrrolidin-1-yl)-phenyl]-amide [Example 29] | 72 |  |
|  | Cn1cnc(S(=O)(=O)N(Cc2ccc(Cl)cc2)c2ccc(F)c(N3CCCC3=O)c2)c1 [Example 4, 1-Methyl-1H-imidazole-4-sulfonic acid (4-chloro-benzyl)-[4-fluoro-3-(2-oxo-pyrrolidin-1-yl)-phenyl]-amide] |  | inhibition at 1 µM (human Kv1.3; CHO, read-out: hKv1.3 % inh.): 61% |
| 45 | O=C1COc2ccc(S(=O)(=O)N(Cc3ccccc3)c3cccc(N4CCCC4=O)c3)cc2N1 [Example 17, 3-Oxo-3,4-dihydro-2H-benzo[1,4]oxazine-6-sulfonic acid benzyl-[3-(2-oxo-pyrrolidin-1-yl)-phenyl]-amide] |  |  |
| 90 | N#Cc1cccc(S(=O)(=O)N(Cc2ccccc2)c2cccc(N3CCOCC3)c2)c1 [Example 20, N-Benzyl-3-cyano-N-(3-morpholin-4-yl-phenyl)-benzenesulfonamide] |  |  |
| 72 | CN1CCOc2cc(S(=O)(=O)N(Cc3ccccc3)c3cccc(N4CCOCC4)c3)ccc21 [Example 21, 4-Methyl-3,4-dihydro-2H-benzo[1,4]oxazine-7-sulfonic acid benzyl-(3-morpholin-4-yl-phenyl)-amide] |  |  |
| 39 | Cc1nc(S(=O)(=O)N(Cc2ccc(Cl)cc2)c2cccc(N3CCCC3=O)c2)cn1C [Example 25, 1,2-Dimethyl-1H-imidazole-4-sulfonic acid (4-chloro-benzyl)-[3-(2-oxo-pyrrolidin-1-yl)-phenyl]-amide] |  |  |
| 84 | CN1CCOc2cc(S(=O)(=O)N(Cc3ccc(Cl)cc3)c3cccc(N4CCCC4=O)c3)ccc21 [Example 27, 4-Methyl-3,4-dihydro-2H-benzo[1,4]oxazine-7-sulfonic acid (4-chloro-benzyl)-[3-(2-oxo-pyrrolidin-1-yl)-phenyl]-amide] |  |  |
| 49 | Cn1cc(S(=O)(=O)N(Cc2ccc(Cl)cc2)c2cccc(N3CCCC3=O)c2)cn1 [Example 28, 1-Methyl-1H-pyrazole-4-sulfonic acid (4-chloro-benzyl)-[3-(2-oxo-pyrrolidin-1-yl)-phenyl]-amide] |  |  |
| 47 | Cn1nccc1S(=O)(=O)N(Cc1ccc(Cl)cc1)c1cccc(N2CCOCC2)c1 [Example 31, 2-Methyl-2H-pyrazole-3-sulfonic acid (4-chloro-benzyl)-(3-morpholin-4-yl-phenyl)-amide] |  |  |
| 64 | CN1CCOc2cc(S(=O)(=O)N(Cc3ccc(Cl)cc3)c3cccc(N4CCOCC4)c3)ccc21 [Example 32, 4-Methyl-3,4-dihydro-2H-benzo[1,4]oxazine-7-sulfonic acid (4-chloro-benzyl)-(3-morpholin-4-yl-phenyl)-amide] |  |  |
| 58 | Cn1cc(S(=O)(=O)N(Cc2ccc(Cl)cc2)c2cccc(N3CCOCC3)c2)cn1 [Example 33, 1-Methyl-1H-pyrazole-4-sulfonic acid (4-chloro-benzyl)-(3-morpholin-4-yl-phenyl)-amide] |  |  |
| 68 | O=C1COc2ccc(S(=O)(=O)N(Cc3ccc(Cl)cc3)c3cccc(N4CCOCC4)c3)cc2N1 [Example 34, 3-Oxo-3,4-dihydro-2H-benzo[1,4]oxazine-6-sulfonic acid (4-chloro-benzyl)-(3-morpholin-4-yl-phenyl)-amide] |  |  |
|  | N-(4-Chloro-benzyl)-3-cyano-N-(3-morpholin-4-yl-phenyl)-benzenesulfonamide [Example 30] | 97 |  |
|  | N-Benzyl-3-cyano-N-[3-(2-oxo-pyrrolidin-1-yl)-phenyl]-benzenesulfonamide [Example 22] | 82 |  |
|  | Pyridine-3-sulfonic acid (4-chloro-benzyl)-(3-morpholin-4-yl-phenyl)-amide [Example 35] | 84 |  |

Reference: patent US8372840B2, “Potassium channel blockers” (Xention Limited, priority 2008, dated 2013)
